From publication PMC11459959, “Discovery of new acetamide derivatives of 5-indole-1,3,4-oxadiazol-2-thiol as inhibitors of HIV-1 Tat-mediated viral transcription” (Antimicrobial Agents and Chemotherapy, 2024)

Assays:
Type in all cases: cell-based
[1] = system: PI-resistant HIV-1 strain 11803; experiment: microbe, parasite or virus in culture; conditions: Human immunodeficiency virus 1, TZM-bl
[2] = system: NRTI-resistant HIV-1 strain 7407; experiment: microbe, parasite or virus in culture; conditions: Human immunodeficiency virus 1, TZM-bl
[3] = system: PI-resistant HIV-1 strain 11800; experiment: microbe, parasite or virus in culture; conditions: Human immunodeficiency virus 1, TZM-bl
[4] = system: NRTI-resistant HIV-1 strain 7396; experiment: microbe, parasite or virus in culture; conditions: Human immunodeficiency virus 1, TZM-bl
[5] = system: NRTI-resistant HIV-1 strain 7406; experiment: microbe, parasite or virus in culture; conditions: Human immunodeficiency virus 1, TZM-bl
[6] = system: HIV-1NL4-3; experiment: HIV-1 infectivity in TZM-bl cells (β-gal activity); conditions: Human immunodeficiency virus 1, TZM-bl, 48 h, read-out: EC50 (β-gal)
Experimental: (C) TZM-bl cells were infected with the HIV-1NL4-3 strain at an MOI of 1 upon treatment of compounds. At 48 h after infection, the viral infectivity and cell viability were determined as described above (Fig. 1). […] (E) TZM-bl cells were infected with the HIV-1NL4-3 at an MOI of 1 upon compound 13. At 48 h after infection, the β-gal activity indicating viral infectivity was determined using the β-gal Enzyme Assay kit. […] (C and E) The dose-response curves show the relative activity compared with that of the DMSO vehicle (mean ± SD; n = 3).
The TZM-bl cells (also referred to as JC53BL-13) expressing human CD4, CXCR4, and CCR5 carrying the F-Luc and lacZ genes downstream of the HIV-1 LTR promoter ([60]) were used to determine the inhibitory effect of the compounds on HIV-1 infection, as previously described ([11], [12], [61]). In brief, 1 × 10^4 cells were cultured in 96-well plates for 24 h and subsequently treated with compounds at the indicated concentrations. […] After 48 h, the inhibitory effect of the compounds was determined using a Bright Glo luciferase assay kit (Promega) or β-Galactosidase Enzyme Assay kit (Promega). […] Cell viability was determined using the resazurin-based PrestoBlue Cell Viability Reagent (Thermo Fisher Scientific, Waltham, MA, USA) following the manufacturer’s instructions.

Compound | EC50 [1] [µM] | EC50 [2] [µM] | EC50 [3] [µM] | EC50 [4] [µM] | EC50 [5] [µM] | EC50 [6] [µM]
Cc1[nH]c2ccc(-c3nnc(SCC(=O)N4CCCC4)o3)cc2c1C [Compound 13, 2-((5-(2,3-Dimethyl-1H-indol-5-yl)-1,3,4-oxadiazol-2-yl)thio)-1-(pyrrolidin-1-yl)ethan-1-one] | 0.16 ± 0.02 | 0.19 ± 0.01 | 0.13 ± 0.1 | 0.15 ± 0.01 | 0.16 ± 0.02 | 0.22 ± 0.03
Cc1[nH]c2ccc(-c3nnc(SCC(=O)N4CCCCC4)o3)cc2c1C [Compound 9, 2-((5-(2,3-Dimethyl-1H-indol-5-yl)-1,3,4-oxadiazol-2-yl)thio)-1-(piperidin-1-yl)ethan-1-one] | 0.07 ± 0.01 | 0.07 ± 0.01 | 0.08 ± 0.01 | 0.07 | 0.09 ± 0.01 | –
